A word on the IC50: it is the concentration needed to halve the response being measured. The fraction remaining is what is left of the initial amount, in per cent. A low value points to a greater loss. In general, logP refers to a log measure of how a compound divides between an organic and an aqueous phase. A high value points to higher lipophilicity.

Where “and” joins values, the source holds several entries; their conditions need not be identical. Equal entries are not always repeated. Where two headings read alike, the source gives them in different places. *1 amine or outer side, *2 acyl side, *3 side chain or, on linkers, in order; H or OH if unused. Where a SMILES comes first, the peptide text is derived from it. Where no end group is shown, it is not given here. [ ]: non-standard residue; d: D form. The star is where a group is joined. DOTA = O=C(O)CN1CCN(CC(=O)O)CCN(CC(=O)*)CCN(CC(=O)O)CC1; NH(CH2CH2O)4CH2CO = O=C(COCCOCCOCCOCCN[*:1])[*:2]; βAla = NCCC(=O)O

The test system of one series is PDGFRβ. The note with it: cited from earlier work.
A short description of series [1]: In vitro stability in PBS pH 7.4. The note with it: 37 °C, 0.1 M PBS pH 7.4.
Experimental: (§3) Briefly, the solution of radiotracers (37 kBq/well, 50 µL) in a sealed tube containing 0.1 M PBS pH 7.4 (450 µL) was incubated at 37 °C for 24 h. At 3 and 24 h after incubation, the purity of radiotracers was analyzed by RP-HPLC. Meanwhile, for stability assay in murine plasma, radiotracers were mixed in murine plasma at a ratio of 1:10. After incubation at 37 °C for 10 min and 1 h, an equivalent amount of ice-cold acetonitrile was added. After centrifugation at 1000× g at 4 °C for 10 min, the supernatant was filtered through a 0.45-µm filter followed by analyzing using RP-HPLC as described above. Then, the radiochemical purities were determined.
A short description of series [2]: In vitro stability in murine plasma. The following applies: 37 °C.
Experimental: as §3
Series [3] is described as follows: Octanol-water partition coefficient (log P), shake-flask. The following applies: n-octanol/PBS, pH 7.4.
Experimental: (§4) The octanol-water partition coefficients for radiotracers were determined via the assessment of their distribution in n-octanol and PBS (pH 7.4) using shake-flask method as described previously [48]. Radioactivity of each layer was measured using auto well gamma counter (n = 4).
The conditions of series [4]: buffer.
Experimental: as §3
For series [5] the following is noted: mouse, 1 h.
Experimental: as §3
The nature of the next series: in vitro. The following applies: mouse, plasma, In vitro stability in murine plasma, percentage of remained intact radiotracer.
A further series is described as follows: physchem. The note with it: pH 7.4.
A short description of series [6]: Biodistribution in BxPC3-luc tumor-bearing mice. The following applies: female, BALB/c nu/nu, mouse, iv, 74 kBq, total radioactivity, 1 h post-injection; for tissue uptake at 1 h: i.v. Format: in vivo, BALB/c nu/nu mice. Here is the method:
(§1) All animal handling procedures were approved by the Kanazawa University Animal Care Committee. Experiments with animals were conducted in accordance with the Guidelines for the Care and Use of Laboratory Animals of Kanazawa University. The animals were housed with free access to food and water at 23 °C with a 12 h light/dark schedule. Four-week-old female BALB/c nu/nu mice (12–17 g) were purchased from Japan SLC Inc. (Hamamatsu, Japan). The tumor-bearing model was prepared by subcutaneous inoculation of 1 × 10^7 BxPC3-luc cells into left shoulder of female BALB/c nu/nu mice. The biodistribution experiment was performed approximately 4–5 weeks post-inoculation.
(§2) A saline solution of [^67Ga]27 or [^67Ga]28 (74 kBq, 100 µL) was injected intravenously into the tail vein of the mice. The mice were sacrificed at 10 min post-injection for [^67Ga]27 and 1 h post-injection for [^67Ga]27 or [^67Ga]28. For in vivo blocking studies, 100 μL of a mixed saline solution of [^67Ga]27 (74 kBq) and IPLPPPRRPFFK peptide (1 mg/mouse) was injected via tile vein into the tumor-bearing mice. The mice were sacrificed at 1 h post-injection. Tissues of interest were removed and weighed. The radioactivity of the tissues was determined using an auto well gamma counter, and counts were corrected for background radiation and physical decay during counting. The data were expressed as percent injected dose per gram tissue (%ID/g).

The test system of series [7] is BxPC3-luc tumor-bearing mice. The experiment in a line: Biodistribution in BxPC3-luc tumor-bearing mice. Format: in vivo, BALB/c nu/nu mice. The note with it: 1 h post-injection, i.v. How it is done: as §1, §2
A short description of series [8]: Biodistribution in BxPC3-luc tumor-bearing mice. The format is in vivo. The note with it: female, BALB/c nu/nu, mouse, stomach, iv, 74 kBq, total radioactivity; 1 h post-injection.
Setting [9] is: mouse, plasma, In vitro stability in murine plasma, percentage of remained intact radiotracer, 1 h.

Experimental for physchem: as §4

For the compound IPLPPPRRPFFK, the 50% inhibitory concentration (IC50) with PDGFRβ (affinity for PDGFRβ) is 480 nM.

Turning to `CC[C@H](C)[C@H](NC(=O)[C@@H](C)NC(=O)[C@@H](C)NC(=O)[C@@H](C)NC(=O)CN1CCN(CC(=O)O)CCN(CC(=O)O)CCN(CC(=O)O)CC1)C(=O)N1CCC[C@H]1C(=O)N[C@@H](CC(C)C)C(=O)N1CCC[C@H]1C(=O)N1CCC[C@H]1C(=O)N1CCC[C@H]1C(=O)N[C@@H](CCCNC(=N)N)C(=O)N[C@@H](CCCNC(=N)N)C(=O)N1CCC[C@H]1C(=O)N[C@@H](Cc1ccccc1)C(=O)N[C@@H](Cc1ccccc1)C(=O)N[C@@H](CCCCN)C(=O)O` [[^67Ga]23, [^67Ga]Ga-DOTA-aaa-IPLPPPRRPFFK, metal not drawn] ({DOTA}-[dA][dA][dA]IPLPPPRRPFFK-OH), the entries for the “In vitro stability in PBS pH 7.4, percentage of remained intact radiotracer” value in [1] (3 h) and in [1] (24 h) were 95.9 ± 0.7% and 94.0 ± 0.5%, respectively. This compound showed a fraction remaining at 1 h in series [2] (setting [9]) of 15.7 ± 2.9%. Further, the log partition coefficient (logP) in [3] was less than -4.

As for “IPLPPPSRPFFK [PDGFR-P1, linear dodecapeptide targeting PDGFRβ identified by biopanning]”, in the series with PDGFRβ (targeting PDGFRβ), the 50% inhibitory concentration (IC50) is 1400 nM.

Regarding `CC[C@H](C)[C@H](NC(=O)CN1CCN(CC(=O)O)CCN(CC(=O)O)CCN(CC(=O)O)CC1)C(=O)N1CCC[C@H]1C(=O)N[C@@H](CC(C)C)C(=O)N1CCC[C@H]1C(=O)N1CCC[C@H]1C(=O)N1CCC[C@H]1C(=O)N[C@@H](CCCNC(=N)N)C(=O)N[C@@H](CCCNC(=N)N)C(=O)N1CCC[C@H]1C(=O)N[C@@H](Cc1ccccc1)C(=O)N[C@@H](Cc1ccccc1)C(=O)N[C@@H](CCCCN)C(=O)O` [[^67Ga]22, [^67Ga]Ga-DOTA-IPLPPPRRPFFK, metal not drawn] ({DOTA}-IPLPPPRRPFFK-OH), the “In vitro stability in PBS pH 7.4, percentage of remained intact radiotracer” value in [4] (3 h) worked out at 95.3 ± 2.7%; in [4] (24 h), 94.1 ± 0.6%. Further, in [5], the “In vitro stability in murine plasma, percentage of remained intact radiotracer” value is 35.2 ± 1.7%. The compound also showed a fraction remaining at 1 h in the series “in vitro” of 35%. This compound also displayed a logP in the series “physchem” of less than -4.

In the case of `CC[C@H](C)[C@H](NC(=O)CCNC(=O)CCNC(=O)CN1CCN(CC(=O)O)CCN(CC(=O)O)CCN(CC(=O)O)CC1)C(=O)N1CCC[C@H]1C(=O)N[C@@H](CC(C)C)C(=O)N1CCC[C@H]1C(=O)N1CCC[C@H]1C(=O)N1CCC[C@H]1C(=O)N[C@@H](CCCNC(=N)N)C(=O)N[C@@H](CCCNC(=N)N)C(=O)N1CCC[C@H]1C(=O)N[C@@H](Cc1ccccc1)C(=O)N[C@@H](Cc1ccccc1)C(=O)N[C@@H](CCCCN)C(=O)O` [[^67Ga]25, [^67Ga]Ga-DOTA-ββ-IPLPPPRRPFFK, metal not drawn] ({DOTA-βAla-βAla}-IPLPPPRRPFFK-OH), the “In vitro stability in PBS pH 7.4, percentage of remained intact radiotracer” value was 94.2 ± 1.7% in series [1] (3 h) and 93.0 ± 0.4% in series [1] (24 h). The compound also showed a fraction remaining at 1 h in series [2] (setting [9]) of 26.2 ± 6.7%. This compound also showed a log partition coefficient (logP) in series [3] of less than -4.

`CC[C@H](C)[C@H](NC(=O)CCNC(=O)CCNC(=O)CCNC(=O)CCNC(=O)CN1CCN(CC(=O)O)CCN(CC(=O)O)CCN(CC(=O)O)CC1)C(=O)N1CCC[C@H]1C(=O)N[C@@H](CC(C)C)C(=O)N1CCC[C@H]1C(=O)N1CCC[C@H]1C(=O)N1CCC[C@H]1C(=O)N[C@@H](CCCNC(=N)N)C(=O)N[C@@H](CCCNC(=N)N)C(=O)N1CCC[C@H]1C(=O)N[C@@H](Cc1ccccc1)C(=O)N[C@@H](Cc1ccccc1)C(=O)N[C@@H](CCCCN)C(=O)O` [[^67Ga]26, [^67Ga]Ga-DOTA-ββββ-IPLPPPRRPFFK, metal not drawn] ({DOTA-βAla-βAla-βAla-βAla}-IPLPPPRRPFFK-OH): the “In vitro stability in PBS pH 7.4, percentage of remained intact radiotracer” value amounted to 96.9 ± 0.3% in series [1] (3 h) and 95.4 ± 0.2% in series [1] (24 h). In series [2] (setting [9]), this compound showed a share remaining at 1 h of 33.1 ± 5.7%. The logP in [3] was less than -4.

Take `CC[C@H](C)[C@H](NC(=O)COCCOCCOCCOCCNC(=O)CN1CCN(CC(=O)O)CCN(CC(=O)O)CCN(CC(=O)O)CC1)C(=O)N1CCC[C@H]1C(=O)N[C@@H](CC(C)C)C(=O)N1CCC[C@H]1C(=O)N1CCC[C@H]1C(=O)N1CCC[C@H]1C(=O)N[C@@H](CCCNC(=N)N)C(=O)N[C@@H](CCCNC(=N)N)C(=O)N1CCC[C@H]1C(=O)N[C@@H](Cc1ccccc1)C(=O)N[C@@H](Cc1ccccc1)C(=O)N[C@@H](CCCCN)C(=O)O` [[^67Ga]28, [^67Ga]Ga-DOTA-EG4-IPLPPPRRPFFK, metal not drawn] ({DOTA}-[NH(CH2CH2O)4CH2CO]IPLPPPRRPFFK-OH): the tissue uptake at 1 h in [6] (blood, read-out: Biodistribution, Blood) was determined as 0.12 %ID/g; in series [6] (bone, read-out: Biodistribution, Bone), 0.1 %ID/g; in series [6] (heart, read-out: Biodistribution, Heart), 0.03 %ID/g; in series [6] (BxPC3-luc tumor, read-out: Biodistribution, Tumor), 0.25 %ID/g; in series [6] (kidney, read-out: Biodistribution, Kidney), 2.96 %ID/g; in [6] (large intestine, read-out: Biodistribution, Large intestine), 0.11 %ID/g. The tissue uptake at 1 h in series [6] (liver, read-out: Biodistribution, Liver) came out at 0.2 %ID/g; in series [6] (lung, read-out: Biodistribution, Lung), 0.18 %ID/g; in series [6] (muscle, read-out: Biodistribution, Muscle) it was 0.03 %ID/g; in series [6] (pancreas, read-out: Biodistribution, Pancreas), 0.07 %ID/g; in [6] (small intestine, read-out: Biodistribution, Small intestine), 0.34 %ID/g; in [6] (spleen, read-out: Biodistribution, Spleen), 0.07 %ID/g. The tissue to tissue ratio at 1 h in series [6] (tumor/blood) came to 2.05. Besides, the “Biodistribution, Brain” value in series [7] is 0.00 (0.00) %injected dose/gram tissue. Also, in series [7], the Tumor/Blood ratio was 2.05 and 2.05 ± 0.77. Further, the tissue uptake dose at 1 h in series [8] is 0.01 %ID. In addition, the “In vitro stability in PBS pH 7.4, percentage of remained intact radiotracer” value in [1] (3 h) stood at 96.9 ± 0.2%; in [1] (24 h), 94.3 ± 0.3%. Further, the “In vitro stability in murine plasma, percentage of remained intact radiotracer” value in [2] (1 h, 60 min) came to 80.1 ± 0.8%. The share remaining at 10 min in [2] (mouse, plasma, In vitro stability in murine plasma, percentage of remained intact radiotracer, 10 min) is 96.2 ± 1.1%. The compound also registered a share remaining at 1 h in series [2] (setting [9]) of more than 75%. The compound also showed a logP in [3] of less than -4.

For “yIPLPPPRRPFFK ([dY]IPLPPPRRPFFK) [yG2, … with tyrosine at the N-terminal for radioiodination]”, the “Affinity for the PDGFRβ relative to IPLPPPSRPFFKY (PDGFR-P1)” value in the series on PDGFRβ (higher affinity) is 16 times.

Consider `CC[C@H](C)[C@H](NC(=O)[C@@H](C)NC(=O)[C@@H](C)NC(=O)[C@@H](C)NC(=O)[C@@H](C)NC(=O)[C@@H](C)NC(=O)CN1CCN(CC(=O)O)CCN(CC(=O)O)CCN(CC(=O)O)CC1)C(=O)N1CCC[C@H]1C(=O)N[C@@H](CC(C)C)C(=O)N1CCC[C@H]1C(=O)N1CCC[C@H]1C(=O)N1CCC[C@H]1C(=O)N[C@@H](CCCNC(=N)N)C(=O)N[C@@H](CCCNC(=N)N)C(=O)N1CCC[C@H]1C(=O)N[C@@H](Cc1ccccc1)C(=O)N[C@@H](Cc1ccccc1)C(=O)N[C@@H](CCCCN)C(=O)O` [[^67Ga]24, [^67Ga]Ga-DOTA-aaaaa-IPLPPPRRPFFK, metal not drawn] ({DOTA}-[dA][dA][dA][dA][dA]IPLPPPRRPFFK-OH), for which the “In vitro stability in PBS pH 7.4, percentage of remained intact radiotracer” value in series [1] (3 h) is 96.3 ± 1.1%; in series [1] (24 h), 94.0 ± 0.5%. In addition, the fraction remaining at 1 h in series [2] (setting [9]) stood at 41.4 ± 2.5%. Further, the logP in [3] was less than -4.

Values taken from PMC7795354, “Development of Radiogallium-Labeled Peptides for Platelet-Derived Growth Factor Receptor β (PDGFRβ) Imaging: Influence of Different Linkers” (Molecules, 2020).
